The values below come from ChEMBL document CHEMBL4804282, “Quinoline-based compounds and methods of inhibiting cdk8/19” (2020).

Structures are written as SMILES. pIC50: −log10 of the molar value. The source made the active and inactive calls. The calls are words filed in the database; no cut-off is given here.

Data set [1] in a line: Half-life in female FVB mouse at 27 mg/kg, ip by LC/MS/MS analysis. The class given is ADME, organism-based. As to conditions: in vivo.
Data set [2] can be described thus: Elimination rate in female FVB mouse at 27 mg/kg, ip by LC/MS/MS analysis. The class given is ADME, organism-based. The note with it: in vivo.
The nature of data set [3]: Inhibition of prostate specific antigen (PSA) production in human LNCaP C4-2 cells measured after 4 days by ELISA assay. The class given is functional, cell-based. The note with it: LNCaP C4-2, 96 h. In general terms: ELISA stands for enzyme-linked immunosorbent assay.
In data set [4] the target is T1, Myosin-IIIb (Homo sapiens) (UniProt Q8WXR4).
T1 sequence (whole entry): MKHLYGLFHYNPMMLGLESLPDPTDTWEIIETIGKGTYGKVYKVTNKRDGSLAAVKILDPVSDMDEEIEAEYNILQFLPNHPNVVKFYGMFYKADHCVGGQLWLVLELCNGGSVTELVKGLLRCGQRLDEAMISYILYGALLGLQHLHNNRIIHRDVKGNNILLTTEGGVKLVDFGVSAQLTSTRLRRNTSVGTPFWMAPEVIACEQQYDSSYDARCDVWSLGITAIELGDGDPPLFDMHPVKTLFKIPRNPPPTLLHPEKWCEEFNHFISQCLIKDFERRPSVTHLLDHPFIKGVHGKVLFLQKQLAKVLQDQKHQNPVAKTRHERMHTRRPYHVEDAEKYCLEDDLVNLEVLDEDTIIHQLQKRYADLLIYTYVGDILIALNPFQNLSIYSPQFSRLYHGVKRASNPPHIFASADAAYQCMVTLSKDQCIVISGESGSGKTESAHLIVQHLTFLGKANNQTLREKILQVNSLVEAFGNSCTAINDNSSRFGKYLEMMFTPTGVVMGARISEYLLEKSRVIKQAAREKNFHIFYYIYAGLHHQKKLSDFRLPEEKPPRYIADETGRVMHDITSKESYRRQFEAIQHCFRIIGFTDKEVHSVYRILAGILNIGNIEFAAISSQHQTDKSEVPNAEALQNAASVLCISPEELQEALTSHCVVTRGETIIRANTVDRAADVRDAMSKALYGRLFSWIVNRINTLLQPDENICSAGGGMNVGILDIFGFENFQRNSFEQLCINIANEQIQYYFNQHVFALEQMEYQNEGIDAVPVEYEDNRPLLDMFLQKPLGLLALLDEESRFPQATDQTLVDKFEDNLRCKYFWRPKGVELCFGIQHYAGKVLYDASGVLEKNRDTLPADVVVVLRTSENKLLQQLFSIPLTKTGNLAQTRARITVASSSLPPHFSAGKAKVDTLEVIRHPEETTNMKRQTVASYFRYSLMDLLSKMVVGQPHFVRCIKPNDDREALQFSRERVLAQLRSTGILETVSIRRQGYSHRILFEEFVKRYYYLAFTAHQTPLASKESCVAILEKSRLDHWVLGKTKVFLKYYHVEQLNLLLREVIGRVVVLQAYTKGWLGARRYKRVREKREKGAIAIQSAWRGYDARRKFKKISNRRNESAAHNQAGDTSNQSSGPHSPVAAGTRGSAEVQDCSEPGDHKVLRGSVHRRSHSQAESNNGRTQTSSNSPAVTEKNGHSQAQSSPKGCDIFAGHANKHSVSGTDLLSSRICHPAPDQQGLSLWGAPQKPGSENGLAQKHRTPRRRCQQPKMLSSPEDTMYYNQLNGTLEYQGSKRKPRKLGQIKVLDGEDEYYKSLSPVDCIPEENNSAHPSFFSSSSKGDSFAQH
Put plainly: Inhibition of human MYO3B by DiscoverX assay.

Data set [5] is described as follows: Metabolic stability of compound in human hepatocytes assessed as metabolic conversion rate by LC/MS/MS analysis. The class given is ADME, cell-based, Hepatocyte.
Data set [6] in a line: AUC in female FVB mouse at 27 mg/kg, ip by LC/MS/MS analysis. The class given is ADME, organism-based. Further details: dose 27 mg/kg. As to conditions: in vivo.
Data set [7] deals with Cyclin-dependent kinase 8 (Homo sapiens) (UniProt P49336). Put plainly: Inhibition of CDK8 in TNF-alpha-induced HEK293 cells at 1 uM by NF-kappaB reporter assay relative to control. The class given is cell-based. (In general: In a reporter assay the amount or activity of a reporter protein is the signal.)
Cyclin-dependent kinase 8 (Homo sapiens), sequence (P49336 whole entry): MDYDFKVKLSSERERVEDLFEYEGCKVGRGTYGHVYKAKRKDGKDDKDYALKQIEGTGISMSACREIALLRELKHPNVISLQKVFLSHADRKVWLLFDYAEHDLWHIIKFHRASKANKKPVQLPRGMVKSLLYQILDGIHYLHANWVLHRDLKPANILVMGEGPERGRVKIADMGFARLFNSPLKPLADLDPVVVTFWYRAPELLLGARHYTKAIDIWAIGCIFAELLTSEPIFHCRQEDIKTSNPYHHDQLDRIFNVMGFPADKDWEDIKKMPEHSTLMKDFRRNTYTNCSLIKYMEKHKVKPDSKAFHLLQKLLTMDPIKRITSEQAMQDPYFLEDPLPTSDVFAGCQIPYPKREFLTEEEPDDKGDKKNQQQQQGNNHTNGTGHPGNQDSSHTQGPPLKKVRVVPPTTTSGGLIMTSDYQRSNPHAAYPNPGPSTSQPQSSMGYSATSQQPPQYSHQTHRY
The target of data set [8] is T2, Cyclin-dependent kinase 8/19 (Homo sapiens) (UniProt P49336+Q9BWU1). As to the kind of experiment: Inhibition of CDK8/CDK19 in HEK293 cells assessed as reduction in JUN expression at 1 uM incubated for 2 hrs and measured after 24 hrs of compound wash-off. Type of data set: cell-based.
T2 sequence (P49336 whole entry, looked up): as the sequence (P49336 whole entry) above
T2 sequence (Q9BWU1 whole entry, looked up): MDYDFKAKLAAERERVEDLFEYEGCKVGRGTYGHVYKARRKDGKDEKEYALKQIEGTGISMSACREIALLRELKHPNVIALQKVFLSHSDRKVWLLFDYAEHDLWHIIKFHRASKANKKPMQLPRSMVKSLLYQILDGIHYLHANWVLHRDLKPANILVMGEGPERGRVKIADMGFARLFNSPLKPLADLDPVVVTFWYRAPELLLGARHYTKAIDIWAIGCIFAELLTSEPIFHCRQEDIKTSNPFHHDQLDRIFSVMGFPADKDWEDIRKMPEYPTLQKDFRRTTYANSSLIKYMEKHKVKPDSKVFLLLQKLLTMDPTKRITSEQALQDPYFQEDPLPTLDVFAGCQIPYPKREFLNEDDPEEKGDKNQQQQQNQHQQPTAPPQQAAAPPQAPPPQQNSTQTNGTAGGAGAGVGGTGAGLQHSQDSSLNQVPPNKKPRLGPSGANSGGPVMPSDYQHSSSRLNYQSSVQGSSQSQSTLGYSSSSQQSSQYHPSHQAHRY
In data set [9] the test system is 4T1. As to the kind of experiment: Antitumour activity against mouse 4T1 cells xenografted in female Balb/c mouse assessed as increase in animal survival at 40 mg/kg, po administered twice per day. The class given is functional, organism-based.
The target of data set [10] is T3, Serine/threonine-protein kinase haspin (Homo sapiens) (UniProt Q8TF76).
T3 sequence (whole entry): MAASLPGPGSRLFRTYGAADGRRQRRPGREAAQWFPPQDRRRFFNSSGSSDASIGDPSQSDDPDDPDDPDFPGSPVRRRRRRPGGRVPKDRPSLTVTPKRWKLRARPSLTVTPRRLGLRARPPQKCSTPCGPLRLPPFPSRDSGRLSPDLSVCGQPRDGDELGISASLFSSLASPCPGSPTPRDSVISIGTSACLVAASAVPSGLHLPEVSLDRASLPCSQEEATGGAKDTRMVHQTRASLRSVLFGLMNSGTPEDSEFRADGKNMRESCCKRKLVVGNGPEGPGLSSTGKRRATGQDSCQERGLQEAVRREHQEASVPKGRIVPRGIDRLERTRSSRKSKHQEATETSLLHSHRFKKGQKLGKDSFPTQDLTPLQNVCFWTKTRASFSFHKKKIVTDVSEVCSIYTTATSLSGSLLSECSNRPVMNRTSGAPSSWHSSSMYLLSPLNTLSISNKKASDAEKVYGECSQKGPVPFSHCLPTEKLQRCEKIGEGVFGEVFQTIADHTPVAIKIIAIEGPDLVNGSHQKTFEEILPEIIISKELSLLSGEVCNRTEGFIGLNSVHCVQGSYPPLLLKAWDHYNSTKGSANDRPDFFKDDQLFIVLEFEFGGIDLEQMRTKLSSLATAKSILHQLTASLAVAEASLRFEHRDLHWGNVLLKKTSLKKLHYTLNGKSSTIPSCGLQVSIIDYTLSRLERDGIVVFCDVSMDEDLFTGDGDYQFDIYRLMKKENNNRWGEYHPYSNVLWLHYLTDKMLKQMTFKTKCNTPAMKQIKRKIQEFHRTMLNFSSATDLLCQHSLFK
As to the kind of experiment: Inhibition of human HASPIN at 2000 nM by KINOMEscan assay.

Data set [11] is described as follows: Elimination rate in female FVB mouse at 19 mg/kg, ip by LC/MS/MS analysis. Type of data set: ADME, organism-based. The note with it: in vivo.
Data set [12] in a line: Drug uptake in tumor of male NcrNU mouse xenografted with human C4-2 cells at 40 mg/kg, po administered for 4 days. Type of data set: ADME, organism-based, Neoplasm, LNCaP C4-2. As to conditions: in vivo, 96 h. Background: In xenograft studies the graft and the host belong to different species.
A short description of data set [13]: Ratio of tumor to blood biodistribution in male NcrNU mouse xenografted with 22Rv1 human xenografts at 20 mg/kg, ip. The class given is ADME, organism-based, Serum/Tumor.
The nature of data set [14]: AUC (0-8 h) in female FVB mouse at 30 mg/kg, po. Type of data set: ADME, organism-based. Set-up: time < 8 hr, route oral, dose 30 mg/kg. As to conditions: in vivo.
Data set [15] concerns LNCaP C4-2. As to the kind of experiment: Antitumor activity against human C4-2 cells xenografted in male NcrNU mouse assessed as decrease in PSA mRNA levels in tumor at 40 mg/kg, po administered for 4 days. The class given is functional, organism-based.
Data set [16] addresses Cyclin-dependent kinase 19 (Homo sapiens) (UniProt Q9BWU1). Put plainly: Inhibition of human CDK19 at 2000 nM by KINOMEscan assay.
The target in data set [17] is Cyclin-dependent kinase 8 (Homo sapiens) (UniProt P49336). As to the kind of experiment: Inhibition of human CDK8 at 2000 nM by KINOMEscan assay.
Data set [18] concerns the target T1, Myosin-IIIb (Homo sapiens). Put plainly: Inhibition of human MYO3B at 2000 nM by KINOMEscan assay.
For data set [19], the target named is T4, Mitogen-activated protein kinase kinase kinase kinase 2 (Homo sapiens) (UniProt Q12851).
T4 sequence (whole entry): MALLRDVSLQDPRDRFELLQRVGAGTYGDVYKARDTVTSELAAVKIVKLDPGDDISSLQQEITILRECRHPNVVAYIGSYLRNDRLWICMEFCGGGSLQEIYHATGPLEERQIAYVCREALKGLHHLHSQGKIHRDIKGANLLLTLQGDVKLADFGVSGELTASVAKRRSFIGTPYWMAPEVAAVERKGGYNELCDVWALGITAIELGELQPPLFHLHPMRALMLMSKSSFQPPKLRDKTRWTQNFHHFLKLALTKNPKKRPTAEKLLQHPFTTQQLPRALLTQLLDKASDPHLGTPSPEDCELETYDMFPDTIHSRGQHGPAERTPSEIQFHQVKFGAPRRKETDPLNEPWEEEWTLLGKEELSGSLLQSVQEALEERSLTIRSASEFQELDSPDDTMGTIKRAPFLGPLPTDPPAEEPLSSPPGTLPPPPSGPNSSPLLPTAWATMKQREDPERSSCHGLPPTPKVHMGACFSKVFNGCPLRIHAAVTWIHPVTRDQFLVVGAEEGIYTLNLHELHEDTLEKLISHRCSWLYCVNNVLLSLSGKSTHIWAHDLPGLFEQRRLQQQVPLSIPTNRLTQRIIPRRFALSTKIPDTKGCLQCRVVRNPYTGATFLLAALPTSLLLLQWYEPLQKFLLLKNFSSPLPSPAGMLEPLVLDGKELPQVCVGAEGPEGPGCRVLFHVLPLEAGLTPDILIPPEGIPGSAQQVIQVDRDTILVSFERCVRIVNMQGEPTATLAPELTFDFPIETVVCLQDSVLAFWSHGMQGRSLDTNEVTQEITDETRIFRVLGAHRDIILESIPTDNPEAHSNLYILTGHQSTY
Put plainly: Inhibition of human MAP4K2 at 2000 nM by KINOMEscan assay.

Data set [20] deals with T2, Cyclin-dependent kinase 8/19 (Homo sapiens). As to the kind of experiment: Inhibition of CDK8/CDK19 in HEK293 cells assessed as reduction in MYC expression at 1 uM incubated for 2 hrs and measured after 24 hrs of compound wash-off. The class given is cell-based.
A short description of data set [21]: Half-life in female FVB mice at 30 mg/kg, po. The class given is ADME, organism-based. The note with it: mouse, in vivo.

Cyclin-dependent kinase 19 (Homo sapiens), sequence (Q9BWU1 whole entry): as the sequence (Q9BWU1 whole entry, looked up) above

As to `CN1CCN(C(=O)c2ccc3cc(CCNc4ncnc5ccc(C#N)cc45)ccc3c2)CC1` [SENEXIN B], the half-life in [1] was 0.17 h. For the same compound, the k el in data set [2] was 0.00111 s⁻¹. The compound further gave a negative logarithm of the IC50 (pIC50) in data set [3] of 6.65. The inhibition result in [4] was “inactive”. Moreover, in [5], the Stabilty entry is given as “Unstable”. This compound displayed an AUC in data set [6] of 1760 ng·h/mL.

For `Clc1ccc2nccc(NCCc3ccccc3)c2c1`, the inhibition in [7] was 8%.

For the compound `CN1CCN(C(=O)c2ccc3cc(CCNc4ccnc5ccc(C#N)cc45)ccc3c2)CC1`, the inhibition entry in data set [8] and in data set [20] was “Active” in each case. Further, the outcome in data set [9] and in data set [15] was Active. For the same compound, the pIC50 in [3] is 7.09. The inhibition in [10], in [16], in data set [17], in [18] and in [19] was over 65% each time. The k el in [11] was 0.000261 s⁻¹. The Drug uptake result in data set [12] is “Active”. In addition, in data set [13], the Kp is 5. Moreover, in data set [14], the exposure AUC(0-t) at 8 h turned out to be 817 ng·h/mL. The Stabilty result in data set [5] is on record as “Stable”. The compound also had a half-life in data set [21] of 3.8 h.

For the compound `Brc1ccc2nccc(NCCc3ccccc3)c2c1`, the inhibition in [7] came to 10%.

The half-life is the time in which the quantity being followed falls by half. Low values mean rapid decline, high ones slow decline. As usually defined, the pIC50 is the negative decadic logarithm of the IC50, by convention in mol/L. High values mean a low IC50, low ones a high IC50. The term inhibition denotes the relative decrease from the control value, in per cent. A word on the AUC: it is concentration integrated over time. Usually Kp stands for tissue or fluid exposure divided by exposure in the circulation. By AUC(0-t) is commonly meant the area under the concentration-time curve up to a stated or last time point.
